Legend:
Assay in all cases: relative viability (nuclei count vs DMSO), 5 days (fraction); higher = more cells survive
A549 = tested on: A549
Method in brief: (§1)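 Medians of duplicate plates are given as relative viability. That measure is the nuclei count in treated wells divided by the count in vehicle wells. Counts were taken on 4× images of lung cancer cell lines in 1536-well plates, 5 days after pin-tool dosing the day after seeding with one drug alone or a fixed anchor-drug dose plus five library-drug doses (not always all listed) in √10 steps.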

UMC-11 = tested on: UMC-11
Method in brief: as §1

Calu-6 = tested on: Calu-6
Method in brief: as §1

EBC-1 = tested on: EBC-1
Method in brief: as §1

HCC-15 = tested on: HCC-15
Method in brief: as §1

NCI-H1623 = tested on: NCI-H1623
Method in brief: as §1

IA-LM = tested on: IA-LM
Method in brief: as §1

NCI-H1395 = tested on: NCI-H1395
Method in brief: as §1

NCI-H1755 = tested on: NCI-H1755
Method in brief: as §1

EKVX = tested on: EKVX
Method in brief: as §1

NCI-H1703 = tested on: NCI-H1703
Method in brief: as §1

NCI-H1299 = tested on: NCI-H1299
Method in brief: as §1

LCLC-103H = tested on: LCLC-103H
Method in brief: as §1

COc1cc2nccc(Oc3ccc(NC(=O)Nc4cc(C)on4)c(Cl)c3)c2cc1OC [Tivozanib] + COc1cc2c(Oc3ccc(NC(=O)C4(C(=O)Nc5ccc(F)cc5)CC4)cc3F)ccnc2cc1OCCCN1CCOCC1 [Foretinib] (partner 0.25 µM)
relative viability (A549; first compound 0.005 µM): 0.804
relative viability (A549; first compound 0.01581 µM): 0.987
relative viability (A549; first compound 0.05 µM): 1.01
relative viability (A549; first compound 0.1581 µM): 0.976
relative viability (A549; first compound 0.5 µM): 1.04
relative viability (UMC-11; first compound 0.005 µM): 1.07
relative viability (UMC-11; first compound 0.01581 µM): 1.04
relative viability (UMC-11; first compound 0.05 µM): 1.1
relative viability (UMC-11; first compound 0.5 µM): 1.01
relative viability (Calu-6; first compound 0.005 µM): 0.896
relative viability (Calu-6; first compound 0.01581 µM): 0.845
relative viability (Calu-6; first compound 0.05 µM): 0.929
relative viability (Calu-6; first compound 0.1581 µM): 0.824
relative viability (Calu-6; first compound 0.5 µM): 0.876
relative viability (EBC-1; first compound 0.005 µM): 0.103
relative viability (EBC-1; first compound 0.01581 µM): 0.104
relative viability (EBC-1; first compound 0.05 µM): 0.11
relative viability (EBC-1; first compound 0.1581 µM): 0.0953
relative viability (EBC-1; first compound 0.5 µM): 0.0941
relative viability (HCC-15; first compound 0.005 µM): 0.915
relative viability (HCC-15; first compound 0.01581 µM): 0.994
relative viability (HCC-15; first compound 0.05 µM): 0.993
relative viability (HCC-15; first compound 0.1581 µM): 1.03
relative viability (HCC-15; first compound 0.5 µM): 0.977
relative viability (NCI-H1623; first compound 0.005 µM): 0.821
relative viability (NCI-H1623; first compound 0.01581 µM): 0.989
relative viability (NCI-H1623; first compound 0.05 µM): 0.938
relative viability (NCI-H1623; first compound 0.1581 µM): 0.888
relative viability (NCI-H1623; first compound 0.5 µM): 0.914
relative viability (IA-LM; first compound 0.005 µM): 1.21
relative viability (IA-LM; first compound 0.01581 µM): 1.15
relative viability (IA-LM; first compound 0.05 µM): 1.24
relative viability (IA-LM; first compound 0.1581 µM): 1.32
relative viability (IA-LM; first compound 0.5 µM): 0.94
relative viability (NCI-H1395; first compound 0.005 µM): 1.04
relative viability (NCI-H1395; first compound 0.01581 µM): 1.01
relative viability (NCI-H1395; first compound 0.05 µM): 1.11
relative viability (NCI-H1395; first compound 0.1581 µM): 0.897
relative viability (NCI-H1395; first compound 0.5 µM): 1.03
relative viability (NCI-H1755; first compound 0.005 µM): 0.916
relative viability (NCI-H1755; first compound 0.01581 µM): 0.865
relative viability (NCI-H1755; first compound 0.05 µM): 0.945
relative viability (NCI-H1755; first compound 0.1581 µM): 0.988
relative viability (NCI-H1755; first compound 0.5 µM): 0.881
relative viability (EKVX; first compound 0.005 µM): 0.695
relative viability (EKVX; first compound 0.01581 µM): 0.891
relative viability (EKVX; first compound 0.05 µM): 0.84
relative viability (EKVX; first compound 0.1581 µM): 0.456
relative viability (EKVX; first compound 0.5 µM): 0.786
relative viability (NCI-H1703; first compound 0.005 µM): 0.335
relative viability (NCI-H1703; first compound 0.01581 µM): 0.385
relative viability (NCI-H1703; first compound 0.05 µM): 0.384
relative viability (NCI-H1703; first compound 0.1581 µM): 0.33
relative viability (NCI-H1703; first compound 0.5 µM): 0.405
relative viability (NCI-H1299; first compound 0.005 µM): 1.05
relative viability (NCI-H1299; first compound 0.01581 µM): 1.09
relative viability (NCI-H1299; first compound 0.05 µM): 1.11
relative viability (NCI-H1299; first compound 0.1581 µM): 1.18
relative viability (NCI-H1299; first compound 0.5 µM): 1.04
relative viability (LCLC-103H; first compound 0.005 µM): 0.905
relative viability (LCLC-103H; first compound 0.01581 µM): 0.809
relative viability (LCLC-103H; first compound 0.05 µM): 0.686
relative viability (LCLC-103H; first compound 0.1581 µM): 0.849
relative viability (LCLC-103H; first compound 0.5 µM): 0.881
